Results taken from ChEMBL document CHEMBL1201862, “PubChem BioAssay data set” (2004).
Calls of active or inactive are those of the source.

Experiments:
[1] = Counterscreen for AddAB inhibitors: absorbance-based bacterial cell-based high throughput dose response assay for inhibitors of bacterial viability. [Related pubchem assays (depositor defined):AID435030, AID449728, AID449731, AID488942, AID488955, AID488956]; format: functional
Exodeoxyribonuclease V = biological target: T1, Exodeoxyribonuclease V (Escherichia coli (strain K12), UniProt P04993+P07648+P08394); assay: E. coli RecBCD inhibitors, dose response, counter-screen for AddAB inhibitor project, absorbance, V66 E. coli, mutant T4 phage (AID 492957); format: functional, cell-based, Escherichia coli str. K-12 substr. MG1655
T1 sequence (P04993 whole entry): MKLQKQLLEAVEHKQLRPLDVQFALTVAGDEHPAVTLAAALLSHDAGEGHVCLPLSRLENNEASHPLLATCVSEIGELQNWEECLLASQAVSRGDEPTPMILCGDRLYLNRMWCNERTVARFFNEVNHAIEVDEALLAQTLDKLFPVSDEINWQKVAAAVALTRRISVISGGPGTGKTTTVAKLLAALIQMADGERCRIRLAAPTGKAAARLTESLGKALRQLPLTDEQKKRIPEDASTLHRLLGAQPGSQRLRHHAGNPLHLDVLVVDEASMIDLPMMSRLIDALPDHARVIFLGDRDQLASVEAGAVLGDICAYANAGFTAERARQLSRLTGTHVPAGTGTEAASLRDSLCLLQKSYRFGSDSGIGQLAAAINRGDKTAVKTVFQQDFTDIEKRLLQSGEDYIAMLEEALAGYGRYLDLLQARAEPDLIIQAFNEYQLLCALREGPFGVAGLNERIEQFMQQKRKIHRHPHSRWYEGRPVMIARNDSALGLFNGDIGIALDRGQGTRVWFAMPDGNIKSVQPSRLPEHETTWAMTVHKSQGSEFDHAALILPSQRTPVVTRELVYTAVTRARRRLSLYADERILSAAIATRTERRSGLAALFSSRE
T1 sequence (P07648 whole entry): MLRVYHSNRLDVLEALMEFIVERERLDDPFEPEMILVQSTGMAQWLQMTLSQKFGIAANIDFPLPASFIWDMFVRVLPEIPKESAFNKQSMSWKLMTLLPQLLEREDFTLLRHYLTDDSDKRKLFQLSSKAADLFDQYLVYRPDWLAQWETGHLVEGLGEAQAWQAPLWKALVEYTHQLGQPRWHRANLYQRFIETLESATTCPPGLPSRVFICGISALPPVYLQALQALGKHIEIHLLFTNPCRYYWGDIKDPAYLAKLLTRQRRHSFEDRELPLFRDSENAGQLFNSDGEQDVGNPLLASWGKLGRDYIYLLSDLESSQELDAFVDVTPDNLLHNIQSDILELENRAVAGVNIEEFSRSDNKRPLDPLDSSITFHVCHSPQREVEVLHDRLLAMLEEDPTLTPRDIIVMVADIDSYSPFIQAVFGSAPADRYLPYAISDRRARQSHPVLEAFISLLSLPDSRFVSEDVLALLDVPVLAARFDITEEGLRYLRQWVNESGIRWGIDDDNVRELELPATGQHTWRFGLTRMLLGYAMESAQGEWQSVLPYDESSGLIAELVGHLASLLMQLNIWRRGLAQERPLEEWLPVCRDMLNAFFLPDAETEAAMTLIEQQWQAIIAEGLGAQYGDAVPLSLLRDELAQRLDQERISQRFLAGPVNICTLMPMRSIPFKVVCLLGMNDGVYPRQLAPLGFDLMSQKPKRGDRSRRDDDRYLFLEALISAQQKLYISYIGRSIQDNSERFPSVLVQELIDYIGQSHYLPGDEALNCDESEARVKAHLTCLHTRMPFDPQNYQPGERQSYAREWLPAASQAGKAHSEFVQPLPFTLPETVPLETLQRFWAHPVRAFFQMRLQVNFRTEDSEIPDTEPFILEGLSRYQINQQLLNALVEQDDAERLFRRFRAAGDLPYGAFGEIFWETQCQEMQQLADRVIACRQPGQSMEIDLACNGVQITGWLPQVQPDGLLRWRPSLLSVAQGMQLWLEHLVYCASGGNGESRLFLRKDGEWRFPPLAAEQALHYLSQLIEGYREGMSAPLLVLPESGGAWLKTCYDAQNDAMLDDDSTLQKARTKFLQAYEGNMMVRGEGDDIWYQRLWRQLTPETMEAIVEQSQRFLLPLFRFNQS
T1 sequence (P08394 whole entry): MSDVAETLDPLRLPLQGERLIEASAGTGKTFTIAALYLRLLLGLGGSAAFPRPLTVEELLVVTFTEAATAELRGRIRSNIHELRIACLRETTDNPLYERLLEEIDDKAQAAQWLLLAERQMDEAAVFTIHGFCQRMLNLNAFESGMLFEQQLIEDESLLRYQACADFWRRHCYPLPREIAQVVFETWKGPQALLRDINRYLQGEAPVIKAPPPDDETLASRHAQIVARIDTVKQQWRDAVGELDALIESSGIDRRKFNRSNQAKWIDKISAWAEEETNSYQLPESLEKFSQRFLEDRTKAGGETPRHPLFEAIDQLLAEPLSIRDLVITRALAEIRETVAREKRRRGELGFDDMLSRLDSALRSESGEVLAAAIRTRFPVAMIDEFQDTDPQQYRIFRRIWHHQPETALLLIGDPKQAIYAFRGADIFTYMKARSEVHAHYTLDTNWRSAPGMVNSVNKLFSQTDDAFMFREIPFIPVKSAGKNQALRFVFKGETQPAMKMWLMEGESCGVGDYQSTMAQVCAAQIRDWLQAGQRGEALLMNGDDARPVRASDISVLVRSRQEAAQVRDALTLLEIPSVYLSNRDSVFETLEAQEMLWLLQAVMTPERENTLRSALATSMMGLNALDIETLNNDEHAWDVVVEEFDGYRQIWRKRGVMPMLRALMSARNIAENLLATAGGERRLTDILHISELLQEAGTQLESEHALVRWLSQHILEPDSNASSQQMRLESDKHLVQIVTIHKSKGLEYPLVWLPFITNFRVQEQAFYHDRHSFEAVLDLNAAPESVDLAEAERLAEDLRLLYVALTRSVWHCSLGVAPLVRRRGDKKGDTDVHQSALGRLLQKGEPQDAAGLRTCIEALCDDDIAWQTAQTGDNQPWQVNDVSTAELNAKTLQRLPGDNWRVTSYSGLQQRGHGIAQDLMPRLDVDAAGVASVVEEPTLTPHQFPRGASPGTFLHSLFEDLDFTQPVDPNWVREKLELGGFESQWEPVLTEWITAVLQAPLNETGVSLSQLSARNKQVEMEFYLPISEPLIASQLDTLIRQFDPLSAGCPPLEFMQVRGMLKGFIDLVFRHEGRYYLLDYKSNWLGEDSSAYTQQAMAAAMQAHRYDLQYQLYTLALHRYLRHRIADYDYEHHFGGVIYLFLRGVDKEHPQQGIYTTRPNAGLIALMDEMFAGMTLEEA

HEK293 [2] = assay: NOD2 signaling inhibitors in MDP-stimulated cells, cell-based, uHTS, luminescence (AID 2001); format: functional; conditions: Homo sapiens
[3] = Luminescence Cell-Based Dose Retest to Confirm Inhibitors of Cancer Stem Cells. [Related pubchem assays (depositor defined):AID2717, AID2721]; format: functional; conditions: Homo sapiens
Vero [4] = assay: cells; format: functional; conditions: Chlorocebus sabaeus
HEK293 [5] = assay: cells; format: functional, cell-based; conditions: Homo sapiens
HEK293 [6] = assay: NOD1 signaling inhibitors, primary screen, cell-based, luminescence, uHTS (AID 1578); format: functional; conditions: Homo sapiens
HEK293 [7] = assay: cells; format: functional, cell-based; conditions: Homo sapiens; remark: listed apart in the source
[8] = biological target: T2, Heat shock factor protein 1 (Mus musculus, UniProt P38532); assay: HSF1 potentiators in luciferase reporter cells, confirmation, cell-based, NIH3T3, luminescence, dose retest (AID 435004); format: functional;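 also: stress induced by proteasome inhibitor MG132 added 30 min after compound; luciferase reporter driven by HSF1 response element in NIH3T3 cells; actives raise luminescence as potentiators of the MG132 stress response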
T2 sequence (P38532 whole entry): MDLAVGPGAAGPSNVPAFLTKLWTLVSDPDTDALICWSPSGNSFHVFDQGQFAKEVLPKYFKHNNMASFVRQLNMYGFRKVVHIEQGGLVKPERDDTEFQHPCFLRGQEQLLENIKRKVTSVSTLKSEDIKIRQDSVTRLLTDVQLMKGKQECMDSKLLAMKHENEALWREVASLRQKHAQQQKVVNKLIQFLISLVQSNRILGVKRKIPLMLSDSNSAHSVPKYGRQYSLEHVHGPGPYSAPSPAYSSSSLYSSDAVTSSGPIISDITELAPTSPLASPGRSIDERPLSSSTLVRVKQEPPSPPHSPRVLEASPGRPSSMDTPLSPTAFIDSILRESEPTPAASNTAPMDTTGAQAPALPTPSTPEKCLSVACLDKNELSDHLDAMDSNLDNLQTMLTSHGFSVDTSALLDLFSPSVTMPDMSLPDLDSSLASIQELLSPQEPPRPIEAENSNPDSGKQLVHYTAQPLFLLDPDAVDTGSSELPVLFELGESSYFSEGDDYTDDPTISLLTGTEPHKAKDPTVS

Vero [9] = assay: cells; format: functional, cell-based; conditions: Chlorocebus sabaeus
HeLa = assay: HeLa cell cytotoxicity, dose response, cytotoxicity control for MITF activator project, CellTiter-Glo luminescence, cherry-pick samples (AID 540259); format: functional, cell-based; conditions: Homo sapiens

Row | Structure (SMILES) | AC50 [3] | CC50 (Vero [4]) | IC50 (Vero [9]) | other results
1 | O=C1CCC(=O)N(O)CCCCCNC(=O)CCC(=O)N(O)CCCCCNC(=O)CCC(=O)N(O)CCCCCN1 [NOCARDAMINE] | – | – | – | IC50 [1]: > 119 µM (inactive); IC50 (Exodeoxyribonuclease V): > 119 µM (inactive)
2 | C=C(C(=O)c1ccccc1)C(CC(=O)c1ccccc1)c1ccccc1 (stereo unspecified) | 2.07 µM (active) | 21 µM (active) | 21.4 µM (active) | IC50 (HEK293 [2]): 4.04 µM (active); IC50 (HEK293 [5]): 1.42 µM (active); EC50 (HEK293 [6]): 8.67 µM (active); IC50 (HEK293 [7]): > 20 µM (inactive); EC50 [8]: 7.91 µM (active)
3 | COc1ccc(-c2nn(-c3ccccc3)cc2C(=O)NC(=S)NNC(=O)c2ccncc2)cc1 | – | 16.4 µM (active) | 16.6 µM (active) | –
4 | CC1(C)CN=c2s/c(=C\c3ccc(Cl)cc3)c(=O)n2C1 | – | – | – | AC50 (HeLa): 277 µM (active)
5 | C[C@]12CC[C@H](O)C[C@H]1CC[C@@H]1[C@@H]2CC[C@]2(C)[C@@H](C3=CC(=O)OC3)[C@@H](O)C[C@]12O [GITOXIGENIN] | 2.58 µM (active) | 6.88 µM (active) | > 12.5 µM (active) | –
